Reference: ChEMBL document CHEMBL5131445, “Optimization of a novel piperazinone series as potent selective peripheral covalent BTK inhibitors” (Bioorg Med Chem Lett, 2022)
In brackets after ≈: the same amount, converted by molar mass.

Experiments:
[1] = molecular target: Tyrosine-protein kinase Blk (Homo sapiens, UniProt P51451); assay: Binding affinity to BLK (unknown origin) assessed as dissociation constant by KINOMEscan analysis
[2] = molecular target: T1, Tyrosine-protein kinase BTK (Homo sapiens, UniProt Q06187); assay: Inhibition of BTK (unknown origin)
[3] = molecular target: T2, Tyrosine-protein kinase Tec (Homo sapiens, UniProt P42680); assay: Binding affinity to TEC (unknown origin) assessed as dissociation constant by KINOMEscan analysis
T2 sequence (P42680 whole entry): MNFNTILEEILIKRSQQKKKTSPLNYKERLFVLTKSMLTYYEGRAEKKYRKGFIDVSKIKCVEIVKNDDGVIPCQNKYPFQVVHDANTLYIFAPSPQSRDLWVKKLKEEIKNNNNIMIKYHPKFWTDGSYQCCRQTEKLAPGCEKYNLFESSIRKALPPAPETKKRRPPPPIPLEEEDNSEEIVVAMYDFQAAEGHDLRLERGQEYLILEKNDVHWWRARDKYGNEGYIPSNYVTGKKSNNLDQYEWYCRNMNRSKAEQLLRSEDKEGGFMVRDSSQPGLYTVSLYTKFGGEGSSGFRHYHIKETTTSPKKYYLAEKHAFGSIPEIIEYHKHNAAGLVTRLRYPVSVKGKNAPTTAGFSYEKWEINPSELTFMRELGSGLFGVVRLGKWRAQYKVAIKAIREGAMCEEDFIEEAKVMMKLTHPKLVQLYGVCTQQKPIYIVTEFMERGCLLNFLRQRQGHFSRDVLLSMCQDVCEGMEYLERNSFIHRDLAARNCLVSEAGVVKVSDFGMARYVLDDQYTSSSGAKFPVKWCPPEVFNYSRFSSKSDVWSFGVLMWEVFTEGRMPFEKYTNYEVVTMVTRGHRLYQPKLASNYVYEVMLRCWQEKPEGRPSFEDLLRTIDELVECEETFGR

[4] = molecular target: T1, Tyrosine-protein kinase BTK; assay: Inhibition of BTK in human Ramos cells assessed as target occupancy; type: cell-based
[5] = molecular target: T3, Cytochrome P450 2B6 (Homo sapiens, UniProt P20813); assay: Inhibition of human CYP2B6; type: ADME
T3 sequence (P20813 whole entry): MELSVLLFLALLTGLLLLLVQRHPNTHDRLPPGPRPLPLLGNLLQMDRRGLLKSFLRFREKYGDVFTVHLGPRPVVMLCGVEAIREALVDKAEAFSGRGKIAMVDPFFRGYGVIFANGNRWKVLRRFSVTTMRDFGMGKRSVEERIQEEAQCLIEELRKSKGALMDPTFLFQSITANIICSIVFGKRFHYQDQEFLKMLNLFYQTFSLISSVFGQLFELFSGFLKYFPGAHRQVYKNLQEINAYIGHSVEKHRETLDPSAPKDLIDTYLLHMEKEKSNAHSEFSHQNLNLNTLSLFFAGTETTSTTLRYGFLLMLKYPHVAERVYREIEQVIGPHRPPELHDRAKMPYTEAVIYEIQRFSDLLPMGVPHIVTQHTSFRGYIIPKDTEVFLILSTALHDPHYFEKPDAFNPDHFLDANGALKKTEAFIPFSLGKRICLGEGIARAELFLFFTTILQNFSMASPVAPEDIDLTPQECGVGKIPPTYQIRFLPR

[6] = Kinetic aqueous solubility of the compound at pH 6.8 by shake flask assay; type: physicochemical; settings: read-out: Kinetic_solubility
[7] = molecular target: T1, Tyrosine-protein kinase BTK; assay: Inhibition of BTK (unknown origin) at 1 uM by KINOMEscan assay relative to control
[8] = molecular target: Receptor tyrosine-protein kinase erbB-2 (Homo sapiens, UniProt P04626); assay: Binding affinity to ERBB2 (unknown origin) assessed as dissociation constant by KINOMEscan analysis
[9] = molecular target: T1, Tyrosine-protein kinase BTK; assay: Binding affinity to BTK (unknown origin) assessed as dissociation constant by KINOMEscan analysis
[10] = molecular target: Epidermal growth factor receptor (Homo sapiens, UniProt P00533); assay: Binding affinity to EGFR (unknown origin) assessed as dissociation constant by KINOMEscan analysis
[11] = molecular target: T4, Cytochrome P450 2C8 (Homo sapiens, UniProt P10632); assay: Inhibition of human CYP2C8; type: ADME
T4 sequence (P10632 whole entry): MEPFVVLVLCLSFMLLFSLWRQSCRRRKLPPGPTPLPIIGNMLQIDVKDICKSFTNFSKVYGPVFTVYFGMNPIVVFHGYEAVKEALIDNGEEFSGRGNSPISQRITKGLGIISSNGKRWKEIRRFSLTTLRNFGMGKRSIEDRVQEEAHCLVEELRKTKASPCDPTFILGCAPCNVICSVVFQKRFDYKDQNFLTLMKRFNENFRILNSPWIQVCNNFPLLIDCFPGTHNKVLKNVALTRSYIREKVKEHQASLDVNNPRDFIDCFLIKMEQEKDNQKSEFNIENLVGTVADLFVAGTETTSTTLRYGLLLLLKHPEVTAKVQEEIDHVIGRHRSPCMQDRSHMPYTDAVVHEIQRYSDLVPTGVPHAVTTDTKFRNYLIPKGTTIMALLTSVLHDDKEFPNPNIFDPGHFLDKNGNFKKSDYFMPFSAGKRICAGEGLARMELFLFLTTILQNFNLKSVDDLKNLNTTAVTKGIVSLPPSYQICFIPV

[12] = molecular target: Cytochrome P450 2D6 (Homo sapiens, UniProt P10635); assay: Inhibition of human CYP2D6; type: ADME
Cytochrome P450 2D6, sequence (P10635 whole entry): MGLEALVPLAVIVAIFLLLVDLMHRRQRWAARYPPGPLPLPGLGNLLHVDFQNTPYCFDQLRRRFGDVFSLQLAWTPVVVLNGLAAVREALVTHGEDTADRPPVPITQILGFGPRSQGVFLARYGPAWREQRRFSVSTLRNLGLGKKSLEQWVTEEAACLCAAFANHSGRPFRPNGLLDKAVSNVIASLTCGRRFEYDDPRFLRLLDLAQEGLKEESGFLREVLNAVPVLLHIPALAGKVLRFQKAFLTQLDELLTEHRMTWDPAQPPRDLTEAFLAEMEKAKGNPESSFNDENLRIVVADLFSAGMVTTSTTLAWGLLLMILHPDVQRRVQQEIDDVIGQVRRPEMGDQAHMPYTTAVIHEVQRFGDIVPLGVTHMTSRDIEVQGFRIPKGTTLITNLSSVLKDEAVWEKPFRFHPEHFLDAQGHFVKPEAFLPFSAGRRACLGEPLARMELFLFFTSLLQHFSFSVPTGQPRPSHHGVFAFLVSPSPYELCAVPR

T1 sequence (Q06187 whole entry): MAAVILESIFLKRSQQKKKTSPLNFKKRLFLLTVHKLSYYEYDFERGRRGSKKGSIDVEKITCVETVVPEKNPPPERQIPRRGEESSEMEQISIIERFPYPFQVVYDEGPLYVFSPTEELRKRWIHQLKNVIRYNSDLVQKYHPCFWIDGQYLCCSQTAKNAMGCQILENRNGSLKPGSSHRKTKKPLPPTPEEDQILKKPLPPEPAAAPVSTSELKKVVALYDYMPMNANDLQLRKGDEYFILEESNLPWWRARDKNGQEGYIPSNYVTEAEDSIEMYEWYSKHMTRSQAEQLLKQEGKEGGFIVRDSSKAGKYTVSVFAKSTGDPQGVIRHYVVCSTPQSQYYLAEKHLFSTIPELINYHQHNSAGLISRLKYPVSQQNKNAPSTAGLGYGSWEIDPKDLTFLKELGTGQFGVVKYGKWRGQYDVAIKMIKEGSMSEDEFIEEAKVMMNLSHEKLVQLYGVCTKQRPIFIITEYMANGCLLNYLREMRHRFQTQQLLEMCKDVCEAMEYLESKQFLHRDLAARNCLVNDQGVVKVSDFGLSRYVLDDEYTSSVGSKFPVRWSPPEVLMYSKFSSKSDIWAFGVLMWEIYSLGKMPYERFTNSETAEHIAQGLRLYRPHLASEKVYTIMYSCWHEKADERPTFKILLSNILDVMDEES
Epidermal growth factor receptor, sequence (P00533 whole entry): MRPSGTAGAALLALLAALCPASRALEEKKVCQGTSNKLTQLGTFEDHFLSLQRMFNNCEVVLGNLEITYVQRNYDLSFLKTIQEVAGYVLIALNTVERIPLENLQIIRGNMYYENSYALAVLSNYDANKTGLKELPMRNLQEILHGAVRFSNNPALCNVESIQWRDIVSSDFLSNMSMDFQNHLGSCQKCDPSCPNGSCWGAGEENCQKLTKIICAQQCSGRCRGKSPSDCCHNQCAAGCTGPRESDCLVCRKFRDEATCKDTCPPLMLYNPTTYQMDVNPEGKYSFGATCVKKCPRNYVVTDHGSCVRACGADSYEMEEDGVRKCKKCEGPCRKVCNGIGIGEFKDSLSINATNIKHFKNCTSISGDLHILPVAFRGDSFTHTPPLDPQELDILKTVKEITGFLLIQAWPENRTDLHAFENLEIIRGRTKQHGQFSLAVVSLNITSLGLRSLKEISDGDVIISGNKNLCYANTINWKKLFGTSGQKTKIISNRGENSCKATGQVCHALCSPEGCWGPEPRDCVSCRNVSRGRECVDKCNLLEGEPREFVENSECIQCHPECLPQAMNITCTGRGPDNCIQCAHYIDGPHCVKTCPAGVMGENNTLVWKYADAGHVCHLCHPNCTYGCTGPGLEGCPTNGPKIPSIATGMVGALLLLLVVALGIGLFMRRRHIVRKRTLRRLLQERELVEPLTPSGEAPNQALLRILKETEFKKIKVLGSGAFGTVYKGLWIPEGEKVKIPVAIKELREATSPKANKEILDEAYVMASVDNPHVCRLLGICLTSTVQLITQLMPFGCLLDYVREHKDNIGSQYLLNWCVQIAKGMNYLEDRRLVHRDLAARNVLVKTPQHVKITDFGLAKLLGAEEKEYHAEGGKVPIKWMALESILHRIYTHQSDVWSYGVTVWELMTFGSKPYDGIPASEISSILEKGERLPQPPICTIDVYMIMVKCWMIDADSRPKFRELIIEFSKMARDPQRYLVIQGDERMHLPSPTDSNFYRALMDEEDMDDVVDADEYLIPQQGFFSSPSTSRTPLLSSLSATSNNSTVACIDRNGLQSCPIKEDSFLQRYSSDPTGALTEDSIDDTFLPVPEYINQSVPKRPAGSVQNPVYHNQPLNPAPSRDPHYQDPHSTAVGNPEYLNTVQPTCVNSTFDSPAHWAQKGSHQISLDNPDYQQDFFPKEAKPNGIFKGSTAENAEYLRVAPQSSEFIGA
Receptor tyrosine-protein kinase erbB-2, sequence (P04626 whole entry): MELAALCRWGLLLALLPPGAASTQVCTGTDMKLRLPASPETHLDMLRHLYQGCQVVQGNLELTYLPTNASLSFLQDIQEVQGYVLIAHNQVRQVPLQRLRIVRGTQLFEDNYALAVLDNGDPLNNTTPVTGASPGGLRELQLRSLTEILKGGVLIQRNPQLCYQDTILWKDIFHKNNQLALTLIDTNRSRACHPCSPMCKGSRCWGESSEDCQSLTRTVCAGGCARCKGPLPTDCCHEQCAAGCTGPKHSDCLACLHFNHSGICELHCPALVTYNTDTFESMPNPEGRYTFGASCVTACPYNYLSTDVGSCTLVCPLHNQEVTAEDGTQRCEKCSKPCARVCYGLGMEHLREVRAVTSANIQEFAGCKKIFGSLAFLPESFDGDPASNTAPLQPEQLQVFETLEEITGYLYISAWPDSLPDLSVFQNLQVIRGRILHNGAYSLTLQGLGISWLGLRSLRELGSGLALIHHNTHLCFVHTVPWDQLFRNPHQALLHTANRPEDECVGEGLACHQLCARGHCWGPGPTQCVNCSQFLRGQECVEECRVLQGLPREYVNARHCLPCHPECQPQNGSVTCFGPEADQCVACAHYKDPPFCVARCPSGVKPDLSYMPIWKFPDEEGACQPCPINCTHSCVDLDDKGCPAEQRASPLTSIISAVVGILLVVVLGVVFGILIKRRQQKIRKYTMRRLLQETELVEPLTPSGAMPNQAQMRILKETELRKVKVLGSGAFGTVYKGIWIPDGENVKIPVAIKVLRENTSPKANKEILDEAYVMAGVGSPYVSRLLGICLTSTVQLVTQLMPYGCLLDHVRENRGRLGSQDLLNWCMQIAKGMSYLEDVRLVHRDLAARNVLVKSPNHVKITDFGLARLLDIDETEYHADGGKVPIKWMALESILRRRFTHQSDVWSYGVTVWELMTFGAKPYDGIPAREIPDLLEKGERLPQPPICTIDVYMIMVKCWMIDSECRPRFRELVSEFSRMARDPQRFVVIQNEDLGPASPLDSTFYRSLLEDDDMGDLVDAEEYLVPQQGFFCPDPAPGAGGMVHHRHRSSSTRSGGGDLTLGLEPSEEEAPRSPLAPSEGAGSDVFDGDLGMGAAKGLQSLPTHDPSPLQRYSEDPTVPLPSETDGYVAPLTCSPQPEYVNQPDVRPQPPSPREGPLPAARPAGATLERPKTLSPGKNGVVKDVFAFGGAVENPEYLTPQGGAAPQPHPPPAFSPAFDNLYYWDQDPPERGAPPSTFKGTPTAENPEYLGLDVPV
Tyrosine-protein kinase Blk, sequence (P51451 whole entry): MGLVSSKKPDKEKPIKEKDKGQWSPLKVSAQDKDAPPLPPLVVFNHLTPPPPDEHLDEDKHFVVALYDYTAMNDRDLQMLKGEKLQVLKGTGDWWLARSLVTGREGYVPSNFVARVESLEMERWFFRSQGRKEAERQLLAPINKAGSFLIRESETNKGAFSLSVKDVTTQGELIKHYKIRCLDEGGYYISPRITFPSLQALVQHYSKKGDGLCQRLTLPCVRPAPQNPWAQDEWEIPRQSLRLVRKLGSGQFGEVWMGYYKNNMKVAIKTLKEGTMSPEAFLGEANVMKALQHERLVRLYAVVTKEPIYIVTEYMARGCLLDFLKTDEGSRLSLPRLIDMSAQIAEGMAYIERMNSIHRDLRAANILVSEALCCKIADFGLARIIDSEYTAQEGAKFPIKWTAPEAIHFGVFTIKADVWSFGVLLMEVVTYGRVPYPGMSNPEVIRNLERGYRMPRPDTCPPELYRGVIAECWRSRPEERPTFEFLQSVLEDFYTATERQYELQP

Kd [1]: 10 µM | IC50 [2]: 0.00022 µM | Kd [3]: 0.24 µM | IC50 [4]: 0.0031 µM | IC50 [5]: > 10 µM | solubility kinetic [6]: 49 µg/mL (≈ 102 µM) | inhibition [7]: > 90% | Kd [8]: 20 µM | Kd [9]: 0.00091 µM | Kd [10]: 30 µM | IC50 [11]: > 10 µM | IC50 [12]: > 10 µM
Structure (SMILES): C=CC(=O)N(C)CCOc1c(N)ncnc1-c1ccc(CN2CCN(CC(C)C)CC2=O)c(C)c1
